Test results reported in patent US6103766A, “Phenylsulfonamide-phenylethylamines useful as dopamine receptors” (Pharmacia & Upjohn Company, priority 1999, dated 2000).
pKi: −log10 of the molar value. Several values for one entry are separate records, joined by “and”; a condition that tells them apart may be missing. Identical values can stand only once. Like-named read-outs stand apart in the source and are kept apart here.

Assays:
dopamine D3 receptor = target: T1, dopamine D3 receptor (Rattus norvegicus, UniProt P19020); experiment: Competition binding at cloned rat dopamine D3 receptor (D3-DOP-CLONE) with [3H]-spiperone; conditions: cloned rat receptor in CHO-K1 cells, [3H]-spiperone (107 Ci/mmol, 0.5 nM), eleven dilutions
T1 construct: expressed in transfected cells; host or cells: CHO-K1
Method: (§1) Competition binding experiments employed eleven dilutions of test compounds of Formula I competing with [^3 H]-5-(dipropylamino)-5,6-dihydro-4H-imidazo(4,5,1-ij)quinolin-2(1H)-one (R-enantiomer) ("86170") (62 Ci/mmol, 2nM) and [^3 H]-spiperone ("SPI") (107 Ci/mmol, 0.5 nM) for D2 and D3 binding sites, respectively. (Lahti, R. A., Eur. J. Pharmacol., 202, 289 (1991)) In each experiment, cloned rat receptors expressed in CHO-K1 cells were used. (Chio, C. L., Nature, 343, 266 (1990); and Huff, R. M., Mol. Pharmacol. 45, 51-60 (1993)).

dopamine D2 receptor = target: T2, dopamine D2 receptor (Rattus norvegicus, UniProt P61169); experiment: Competition binding at cloned rat dopamine D2 receptor (D2-DOP-CLONE) with [3H]-86170; conditions: cloned rat receptor in CHO-K1 cells, [3H]-86170 (62 Ci/mmol, 2 nM), eleven dilutions, read-out: Ki (Receptor binding, IC50 values)
T2 construct: expressed in transfected cells; host or cells: CHO-K1
Method: as §1

[1] = Ki (Receptor binding, IC50 values)
[2] = read-out: Ki (Receptor binding, IC50 values)

T2 sequence (P61169 whole entry): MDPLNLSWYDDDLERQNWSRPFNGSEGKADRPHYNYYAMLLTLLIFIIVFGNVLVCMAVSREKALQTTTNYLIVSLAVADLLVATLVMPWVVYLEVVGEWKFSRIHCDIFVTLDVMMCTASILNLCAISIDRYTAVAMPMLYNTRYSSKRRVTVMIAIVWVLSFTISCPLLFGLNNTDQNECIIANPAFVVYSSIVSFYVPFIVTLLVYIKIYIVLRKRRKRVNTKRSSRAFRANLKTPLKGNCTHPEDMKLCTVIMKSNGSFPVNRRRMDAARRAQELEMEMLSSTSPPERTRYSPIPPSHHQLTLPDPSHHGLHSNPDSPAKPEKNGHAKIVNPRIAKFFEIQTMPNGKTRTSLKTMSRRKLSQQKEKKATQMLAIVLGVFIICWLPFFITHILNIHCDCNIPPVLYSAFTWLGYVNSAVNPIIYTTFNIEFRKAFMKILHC
T1 sequence (P19020 whole entry): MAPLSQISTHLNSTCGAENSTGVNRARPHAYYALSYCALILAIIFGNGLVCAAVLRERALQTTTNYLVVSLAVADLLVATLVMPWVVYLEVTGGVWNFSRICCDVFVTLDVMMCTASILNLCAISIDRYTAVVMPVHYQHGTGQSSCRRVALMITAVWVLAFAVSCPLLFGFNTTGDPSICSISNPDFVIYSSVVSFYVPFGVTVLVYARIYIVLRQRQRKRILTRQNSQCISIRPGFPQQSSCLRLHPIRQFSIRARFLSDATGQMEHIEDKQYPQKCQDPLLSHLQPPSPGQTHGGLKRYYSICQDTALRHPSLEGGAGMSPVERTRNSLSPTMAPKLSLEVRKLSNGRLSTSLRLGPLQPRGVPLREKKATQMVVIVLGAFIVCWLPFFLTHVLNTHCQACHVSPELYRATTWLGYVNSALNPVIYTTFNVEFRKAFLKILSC

SMILES | pKi (dopamine D3 receptor; [1]) | pKi (dopamine D2 receptor) | pKi (dopamine D3 receptor; [2])
CCCN(CCC)CCc1ccc(NS(=O)(=O)c2ccc(Cl)cc2)cc1 [Example 1, 2-[4-(4-chlorobenzenesulfonamido)phenyl]ethyl-1-dipropylamine] | 8.43 | 6.20 | 
CCCN(CCC)CCc1ccc(NS(=O)(=O)c2ccc(NC(C)=O)cc2)cc1 [Example 2, 2-[4-(4-acetamidobenzenesulfonamido)phenyl]ethyl-1-dipropylamine] |  | 5.97 | 7.47
CCCNCCc1ccc(NS(=O)(=O)c2ccc(Cl)cc2Cl)cc1 [Example 3, 2-[4-(2,4-dichlorobenzenesulfonamido)phenyl]ethyl-1-propylamine] |  | 6.12 | 7.85 and 7.59
CCCNCCc1ccc(NS(=O)(=O)c2ccc(Cl)cc2)cc1 [Example 4, 2-[4-(4-chlorobenzenesulfonamido)phenyl]ethyl-1-propylamine] | 7.74 | 6.17 | 
CCCNCCc1ccc(NS(=O)(=O)c2ccc(OC(F)(F)F)cc2)cc1 [Example 5, 2-[4-(4-trifluoromethoxybenzenesulfonamido)phenyl]ethyl-1-propylamine] |  | 5.62 | 7.55
CCCNCCc1ccc(NS(=O)(=O)c2ccc(F)cc2Cl)cc1 [Example 6, 2-[4-(2-chloro-4-fluorobenzenesulfonamido)phenyl]ethyl-1-propylamine] |  | 5.66 | 6.78
CCCNCCc1ccc(NS(=O)(=O)c2ccc(Br)cc2)cc1 [Example 7, 2-[4-(4-bromobenzenesulfonamido)phenyl]ethyl-propylamine] | 7.85 | 6.21 | 
CCCNCCc1ccc(NS(=O)(=O)c2ccc(C(F)(F)F)cc2)cc1 [Example 8, 2-[4-[(4-trifluoromethyl)benzenesulfonamido]phenyl]ethyl-1-propylamine] |  | 5.82 | 7.48
CCCNCCc1cccc(NS(=O)(=O)c2ccccc2F)c1 [Example 9, 2-[3-(2-fluorobenzenesulfonamido)phenyl]ethyl-1-propylamine] | 7.27 | 6.19 | 
CCCNCCc1cccc(NS(=O)(=O)c2cccc(Cl)c2)c1 [Example 10, 2-[3-(3-chlorobenzenesulfonamido)phenyl]ethyl-1-propylamine] |  | 5.97 | 6.95
